Results taken from patent publication US11833119B2, “Combination therapies for the treatment of hepatocellular carcinoma” (priority 2018, dated 2023).

Assays:
[1] = test system: LIX125, a hepatocellular carcinoma patient derived xenograft (PDX) model; assay: LIX125 PDX xenograft in vivo study, antitumor activity; settings: 32 days
Method: The human primary hepatocellular model LIX125 from ChemPartner (shangpharma.com) was implanted into the female severe combined immunodeficiency (SCID) mice. When the tumors developed in mice, they were sacrificed and the resected tumors were implanted into female NU/NU mice for tumor preservation, histological diagnosis and in vivo efficacy study. Solid tumor tissues were depleted of necrotic components, cut into 10-15 mg pieces and mixed. Three to five pieces were mixed with […] Matrigel and implanted into a flank of 6-8 week old female NU/NU immune compromised mice weighing 18-20 g. All of the primary tumors utilized in this study had undergone 3 to 5 passages in vivo and the tumor histology of each was maintained over the serial transplantation.
When the mean tumor volume (TV) reached approximately 170 mm^3 (10 days after implantation), mice were selected based on their TVs, and were sorted into multiple treatment groups with 8 animals per group. Per os (PO) treatment with Compound 1 (300 mg/kg for Hep3B and 500 mg/kg for LIX125) alone or in combination with lenvatinib vehicle (control) or lenvatinib (10 mg/kg or 3 mg/kg) administered once daily (QD). […]
The administration volume (0.1 mL/10 g body weight) was calculated from the individual mouse body weight (BW) before administration. Body weights were measured daily and tumor measurements were performed twice weekly. […]
The tumor volume (TV) in mm^3 was calculated according to the following formula: TV=length×width^2×0.5 length: largest diameter of tumor (mm) width: diameter perpendicular to length (mm). The tumor growth inhibition % (TGI) was calculated according to the following formula: Tumor growth inhibition % (TGI)=[(Average control TV day X−Treatment TV day X)/(Average control TV day X)]×100, where day X is any day of the treatment. […]
Data represent the mean±SEM for tumor volume (N=8). The differences in TV between groups were analyzed by multiple unpaired t-tests with significance determined using the Holm-Sidak method. […]

[2] = test system: Hep3B xenograft (human hepatocellular cancer cell line); assay: Hep3B cells xenograft in vivo study, antitumor activity; set-up: species or system BALB/c nu/nu female mice; settings: for Tumor growth inhibition % (TGI): 53 days
Method: The cell line used, Hep3B (also called HEP3B.1-7), was sourced from American Type Culture Collection (ATCC), verified free of […] contamination and verified for identity by short tandem repeat analysis of 9 markers.
For the human hepatocellular cancer cell line Hep3B xenografts, Hep3B cells were cultured in RPMI1640 medium containing 10% FBS at 37° C. in a 5% CO2 atmosphere and kept in exponential growth phase. For harvesting, the cells were washed with PBS, incubated with 0.25% trypsin-EDTA, and suspended in a 1:1 mixture of RPMI1640 medium containing 10% FBS. To prepare the inoculum at a final concentration of 5×10^7 cells/mL, the cell were spun and resuspended in RPMI1640 and Matrigel (Corning). To generate xenografts, 0.1-mL of the inoculum was injected subcutaneously into the right flank region of BALB/c nu/nu female mice, approximately 8-week-old, weighing 18-20 g, giving a final concentration of 5×10^6 cells/mouse.
When the mean tumor volume (TV) reached approximately 170 mm^3 (10 days after implantation), mice were selected based on their TVs, and were sorted into multiple treatment groups with 8 animals per group. Per os (PO) treatment with Compound 1 (300 mg/kg for Hep3B and 500 mg/kg for LIX125) alone or in combination with lenvatinib vehicle (control) or lenvatinib (10 mg/kg or 3 mg/kg) administered once daily (QD). Additional groups included treatment with lenvatinib (10 mg/kg or 3 mg/kg) in combination with Compound 1 vehicle. (Lenvatinib vehicle includes the vehicle in which lenvatinib is administered; but, without any lenvatinib. Likewise, Compound 1 vehicle includes the vehicle in which Compound 1 is administered; but, without any Compound 1.)
The administration volume (0.1 mL/10 g body weight) was calculated from the individual mouse body weight (BW) before administration. Body weights were measured daily and tumor measurements were performed twice weekly. Mice with >20% body weight loss compared with their day 1 body weight or bearing tumors with the longest diameter […] were immediately euthanized to prevent any pain or suffering for the animal.
The tumor volume (TV) in mm^3 was calculated according to the following formula: TV=length×width^2×0.5 length: largest diameter of tumor (mm) width: diameter perpendicular to length (mm). The tumor growth inhibition % (TGI) was calculated according to the following formula: Tumor growth inhibition % (TGI)=[(Average control TV day X−Treatment TV day X)/(Average control TV day X)]×100, where day X is any day of the treatment. The antitumor effects of the treatment, partial regression (PR) and complete regression (CR), stable disease (SD), and progressive disease (PD) were defined as follows: […]
PD: 3 consecutive measurements >120% of starting volume or 3 consecutive increasing measurements from best response; SD: 3 consecutive measurements >50% and <120% of starting volume; PR: 3 consecutive measurements <50% of starting volume; CR: 3 consecutive measurements <30 mm^3.
Data represent the mean±SEM for tumor volume (N=8). The differences in TV between groups were analyzed by multiple unpaired t-tests with significance determined using the Holm-Sidak method. Statistical analyses were performed using the GraphPad Prism version 7 (GraphPad Software, La Jolla, CA).
To determine whether lenvatinib enhances tumor growth inhibition (TGI) exerted by Compound 1, the Hep3B cell line was grown as a xenograft in female nude immunocompromised mice. Tumor bearing mice were orally treated daily for 53 days with (a) 300 mg/kg Compound 1 as single agent with lenvatinib vehicle; (b)(i) 10 mg/kg lenvatinib as a single agent with Compound 1 vehicle; (b)(ii) 3 mg/kg lenvatinib as a single agent with Compound 1 vehicle; (c)(i) 300 mg/kg Compound 1 and 10 mg/kg lenvatinib in combination; or (c)(ii) 300 mg/kg Compound 1 and 3 mg/kg lenvatinib in combination.

C=CC(=O)Nc1cc(N2CCN(CC)CC2)ccc1Nc1cc(N(C)C(=O)Nc2c(Cl)c(OC)cc(OC)c2Cl)ncn1 [Compound 1, N-(2-((6-(3-(2,6-dichloro-3,5-dimethoxyphenyl)-1-methylureido)pyrimidin-4-yl)amino)-5-(4-ethylpiperazin-1-yl)phenyl)acrylamide]
Tumor growth inhibition % (TGI) ([1]; Compound 1 500 mg/kg PO QD single agent, vs vehicle controls p>0.05): 60%
Tumor growth inhibition % (TGI) ([2]; Compound 1 300 mg/kg PO QD single agent with lenvatinib vehicle, vs vehicle control P<0.00001): 81%
animals with progressive disease (PD) ([2]; Compound 1 300 mg/kg single agent, PD: 3 consecutive measurements >120% of starting volume or 3 consecutive increasing measurements from best response): 6/8

COc1cc2nccc(Oc3ccc(NC(=O)NC4CC4)c(Cl)c3)c2cc1C(N)=O [Lenvatinib, 4-[3-chloro-4-(N′-cyclopropylureido)phenoxy]-7-methoxyquinoline-6-carboxamide]
Tumor growth inhibition % (TGI) ([1]; lenvatinib 3 mg/kg PO QD single agent, vs vehicle control p>0.05): 44%
Tumor growth inhibition % (TGI) ([1]; lenvatinib 10 mg/kg PO QD single agent, vs vehicle control p<0.0007): 72%
Tumor growth inhibition % (TGI) ([2]; lenvatinib 3 mg/kg PO QD single agent with Compound 1 vehicle, vs vehicle controls P>0.05): 23%
animals with progressive disease (PD) ([2]; lenvatinib 3 mg/kg single agent): 8/8
Tumor growth inhibition % (TGI) ([2]; lenvatinib 10 mg/kg PO QD single agent with Compound 1 vehicle, vs vehicle controls P<0.00005): 58%
animals with progressive disease (PD) ([2]; lenvatinib 10 mg/kg single agent): 8/8
